Test system: Staphylococcus epidermidis
Experiment: biofilm assay (biofilm inhibition and biofilm dissolution, color reaction on microtiter plate scale, FIG. 1)
Assay type: cell-based
Conditions: based on the positive control (PC1); for biofilm inhibition (biofilm-inhibiting effectiveness): timepoint 0 h; for biofilm-dissolving effect: timepoint 24 h
Experimental: In the course of the biofilm assay, the biofilm inhibition at timepoint 0 h and also the biofilm-dissolving effect at timepoint 24 h is investigated using a color reaction on a microtiter plate scale.
The test shown in FIG. 1 was carried out with Staphylococcus epidermidis, a germ which causes little harm for people with a normal immunological defense. Staphylococcus epidermidis (syn. Staphylococcus albus, Micrococcus epidermidis, Staphylococcus saprophyticus) is a Gram-positive, plasmacoagulase-negative, saprophagic bacterium which colonizes the human skin and mucosa. Furthermore, it can be found on foods and also colonizes on polymeric surfaces (e.g. packagings). However, in a hospital, in the case of immunocompromised people, it can, in cases of lack of cleanliness, be a cause of serious diseases.

Structure (SMILES) | biofilm inhibition (biofilm-inhibiting effectiveness) | biofilm-dissolving effect | effectiveness in the biofilm assay (inhibition / dissolution not distinguished)
Cn1sccc1=O [methylisothiazolinone, 2-methyl-2H-isothiazol-3-one] | very good biofilm-inhibiting effectiveness | slight biofilm dissolution | –
CCOC(=O)c1ccc(O)cc1 [ethylparaben] | – | – | Neither ethylparaben nor methylparaben exhibited effectiveness
CC(C)(C)CC(C)(C)c1ccc(OCCOCC[N+](C)(C)Cc2ccccc2)cc1 [benzethonium chloride, benzyldimethyl (4-{2-[4-(1,1,3,3-tetramethylbutyl)phenoxy]ethoxy}ethyl)ammonium chloride] | – | very good biofilm-dissolving effect | –
COC(=O)c1ccc(O)cc1 [methylparaben] | – | – | Neither ethylparaben nor methylparaben exhibited effectiveness
Cc1cc(CC(C)CC(C)(C)C)n(O)c(=O)c1 (stereo not drawn) [piroctone olamine, 1-hydroxy-4-methyl-6-(2,4,4-trimethylpentyl)-2(1H)-pyridone] | very good biofilm-inhibiting effectiveness | slight biofilm dissolution | –
CCCCCCCCCCCC(=O)N[C@@H](CCCN=C(N)N)C(=O)OCC.Cl [lauroyl ethyl arginate, ethyl lauroyl arginate HCl] | very good biofilm-inhibiting effectiveness | very good biofilm-dissolving effect | –
